US20240148714A1, “Triple Negative Breast Cancer Treatment Method” (Exelixis, Inc., priority 2016, published 2024)
“Also recorded” adds a separate entry of the source.

How the values were obtained:
[1] = system: plasma biomarkers; assay: Circulating biomarker assays: plasma proteins (multiplex arrays, ELISA); type: in vivo, human; design: plasma VEGF R2, Median / plasma bFGF, Median / plasma sPLT-3, Median / plasma VEGF, Median / plasma VEGF-D, Median / plasma sMET, Median: unit not given beside the values
From the text: Circulating Biomarker Assays: Potential biomarkers of cabozantinib activity were identified by measuring plasma proteins at baseline, on day 8 of therapy, on day 1 of each cycle of therapy, and, if available, at the time of progression. Eight milliliters of blood was collected in purple top (plasma EDTA) vacutainers and shipped on wet ice to a Clinical Laboratory Improvement Amendments-certified core in the Steele Laboratories (Massachusetts General Hospital), where whole blood was separated by centrifugation into cellular fraction and plasma. The fraction of stem/progenitor cell, lymphocyte, and myeloid populations of total circulating mononuclear cells were counted by flow cytometry using a LSR-II cytometer and FACSDiva software in fresh blood samples using the following markers: CD3, CD4, CD8, CD14, CD25, CD34, CD45, CD56, CD127, and CD133 (Becton Dickinson, Franklin Lakes, NJ, www.bd.com). Plasma was prepared in the standard fashion and stored at −78° C. until collection and analysis of all samples. The biomarkers measured included VEGF, placental growth factor (PlGF), VEGF-C, VEGF-D, soluble VEGFR1 (sVEGFR1), basic fibroblast growth factor (bFGF), and sTie-2 (using a 7-plex Growth Factor array) and granulocyte-macrophage colony stimulating factor (GM-CSF), interferon gamma (IFN-g), tumor necrosis factor alpha (TNF-a), and interleukin-1beta (IL-1b), IL-2, IL-6, IL-8, IL-10, and IL-12 heterodimer p70 (using a 9-plex Inflammatory Factor array; both Meso Scale Discovery, Gaithersburg, MD, www.mesoscale.com); and HGF, sMET, carbonic anhydrase IX (CAIX), stromal cell-derived factor 1 a (SDF1a), and sVEGFR2 by single analyte enzyme-linked immunosorbent assay (R&D Systems, Minneapolis, MN, www.rndsystems.com). Descriptive statistics were used to summarize biomarker values at protocol-specific time points. […] The Wilcoxon signed rank test assessed biomarker change from day 1 to 8. Mixed effects linear models assessed the change in biomarker values at days 1, 8, 22, 43, and 64; values beyond day 64 were not analyzed because of the small number of patients still on protocol. In the mixed effects linear model, the fixed effects were times of assessment, and patients were entered as a random effect. Logarithmic transformation was used to achieve normality, when applicable. Baseline biomarkers were stratified by using the median values for the entire cohort. The log-rank test compared PFS among patients with low or high baseline sMET. All tests were conducted with two-sided […]. The Benjamini-Hochberg procedure was used to adjust p values to control the false discovery rate from evaluating multiple circulating biomarkers.

[2] = Participant-reported pain questionnaire and analgesic use; type: in vivo, human
Procedure: Study Design and Treatment: As indicated, this was a single-arm, two-stage phase II study assessing the efficacy of cabozantinib monotherapy in patients with mTNBC. Treatment consisted of oral dosing of cabozantinib at 60 mg daily over a 21-day cycle. Patients underwent radiographic restaging at 6 weeks and every 9 weeks thereafter. Patients with complete or partial RECIST responses continued to receive study treatment, whereas those with progressive disease were taken off study. Dose reductions for toxicity occurred if patients experienced grade 3 or 4 neutropenia or thrombocytopenia, or nonhematologic adverse events. From the starting dose of 60 mg daily, doses were reduced as needed to 40 and 20 mg daily. For the purposes of determining the effect of cabozantinib treatment on pain and analgesic medication use, pain was assessed by a participant-reported questionnaire, and daily analgesic medication usage was recorded. These were completed at baseline and during week 3, 6, and every 6 weeks thereafter until the date of the participant's last follow-up visit.

[3] = baseline to day 22, maintained at day 64

## COc1cc2nccc(Oc3ccc(NC(=O)C4(C(=O)Nc5ccc(F)cc5)CC4)cc3)c2cc1OC [cabozantinib]
[1]; Day 1 (baseline)
  plasma VEGF R2, Median: 8.872
  plasma VEGF, Median: 98
  plasma VEGF-D, Median: 1.062
  plasma bFGF, Median: 39
  plasma sMET, Median: 795
  plasma sPLT-3, Median: 1.24
[1]; Day 8
  plasma VEGF R2, Median: 8.475
  plasma VEGF, Median: 188
  plasma VEGF-D, Median: 1.419
  plasma bFGF, Median: 41
  plasma sMET, Median: 890
  plasma sPLT-3, Median: 50
[1]; Day 22
  plasma VEGF R2, Median: 6.726
  plasma VEGF, Median: 206
  plasma VEGF-D, Median: 1.582
  plasma bFGF, Median: 28
  plasma sMET, Median: 902
  plasma sPLT-3, Median: 90
[1]; Day 43
  plasma VEGF R2, Median: 5.812
  plasma VEGF, Median: 206
  plasma VEGF-D, Median: 1.437
  plasma bFGF, Median: 33
  plasma sMET, Median: 903
  plasma sPLT-3, Median: 124
[1]; Day 64
  plasma VEGF R2, Median: 5.968
  plasma VEGF-D, Median: 1.429
  plasma bFGF, Median: 21
  plasma sMET, Median: 923
  plasma sPLT-3, Median: 87
[1]; [3]
  change in plasma PIGF: increases
  change in plasma VEGF: increases
  change in plasma VEGF-D: increases
[1]; day 8
  change in plasma HGF: initially decreased
[1]; day 22
  change in plasma SDF1a: transiently increased; also recorded: increases
[1]; day 64
  change in plasma HGF: increased
[1]; days 43 and 64
  change in plasma CAIX: increases
  change in plasma sVEGFR2: significantly decreased
[1]; in vivo
  change in plasma bFGF over time: did not significantly change
  change in plasma sMET over time: did not significantly change
  change in plasma sTIE-2 over time: did not significantly change
  change in plasma sVEGFR1 over time: did not significantly change
[2]; of 21 patients with pain at entry who completed a survey
  patients reporting a decrease in pain since baseline: 52%
[2]; of the eleven with decreased pain
  patients with decreased pain who discontinued pain medications: 10 patients
